Test system: muscle progenitors derived from DMD hiPSC
Assay: Myotube assay: total myotube area per well (alpha-actinin staining)
Type: cell-based, human
Conditions: Homo sapiens, Myotube, 72 h, DMD or WT cell source not given; for Emax: efficacy, MA = normalized Myotube Area, 3 days incubation; for EC50: myogenic activity, half-maximal generation of myotubes, 10 points dose-response 1.5 nM to 30 µM, 3 days
Method in brief: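 DMD hiPSC-derived muscle progenitors (NCRM-1 background) plated at 3500 cells/well in K5 medium with 5 µM Y-27632, then exposed to compound at 1.5 nM–30 µM for 3 days at 37°C. Cells fixed on day 7, alpha-actinin-immunostained and total myotube area per well quantified; duplicates averaged, EC50 and normalized myotube area derived.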

EC50 [nM] | SMILES | Emax [%]
≥ 5000 | CC(C)(C)c1cc(NC(=O)Nc2ccc(C(=O)c3ccncc3)cc2)n(-c2ccccc2)n1 [(cs), 1-(3-(tert-butyl)-1-phenyl-1 H-pyrazol-5-yl)-3-(4-isonicotinoylphenyl)urea] | 25 to 50
< 500 | CSc1cc(Oc2ccnc3c2OCC(=O)N3)ccc1NC(=O)Nc1cc(C(C)(C)C)nn1-c1ccccc1 [(ct), 1-(3-(tert-butyl)-1-phenyl-1H-pyrazol-5-yl)-3-(2-(methylthio)-4-((3-oxo-3,4-dihydro-2H-pyrido[3,2-b][1,4]oxazin-8-yl)oxy)phenyl)urea] | ≥ 75
< 500 | CC(C)(C)c1cnc(NC(=O)Nc2ccc(Oc3ccnc4c3CCC(=O)N4)c3ccccc23)s1 [(cu), 1-(5-(tert-butyl)thiazol-2-yl)-3-(4-((7-oxo-5,6,7,8-tetrahydro-1,8-naphthyridin-4-yl)oxy)naphthalen-1-yl)urea] | ≥ 75
< 500 | CCOC(=O)Nc1cc(Oc2ccc(NC(=O)Nc3cc(C(C)(C)C)nn3-c3ccccc3)c(SC)c2)ccn1 [(cv), ethyl (4-(4-(3-(3-(tert-butyl)-1-phenyl-1H-pyrazol-5-yl)ureido)-3-(methylthio)phenoxy)pyridin-2-yl)carbamate] | ≥ 75
≥ 5000 | CC(C)(C)c1cc(NC(=O)Nc2cccc(Oc3ccnc4[nH]c(=O)cnc34)c2F)n(-c2ccccc2)n1 [(cw), 1-(3-(tert-butyl)-1-phenyl-1 H-pyrazol-5-yl)-3-(2-fluoro-3-((3-oxo-3,4-dihydropyrido[2,3-b]pyrazin-8-yl)oxy)phenyl)urea] | ≥ 75
500 to 1000 | CSc1cc(Oc2ccnc(NC(=O)OCc3ccccc3)c2)ccc1NC(=O)Nc1cc(C(C)(C)C)nn1-c1ccccc1 [(cx), benzyl (4-(4-(3-(3-(tert-butyl)-1-phenyl-1H-pyrazol-5-yl)ureido)-3-(methylthio)phenoxy)pyridin-2-yl)carbamate] | ≥ 75
500 to 1000 | CSc1cc(Oc2ccnc3c2OCCN3)ccc1NC(=O)Nc1cc(C(C)(C)C)nn1-c1ccccc1 [(cy), 1-(3-(tert-butyl)-1-phenyl-1H-pyrazol-5-yl)-3-(4-((3,4-dihydro-2H-pyrido[3,2-b][1,4]oxazin-8-yl)oxy)-2-(methylthio)phenyl)urea] | ≥ 75
500 to 1000 | CSc1cc(Oc2ccnc3c2CCC(=O)N3)ccc1NC(=O)Nc1cc(C(C)(C)C)no1 [(cz), 1-(3-(tert-butyl)isoxazol-5-yl)-3-(2-(methylthio)-4-((7-oxo-5,6,7,8-tetrahydro-1,8-naphthyridin-4-yl)oxy)phenyl)urea] | ≥ 75
1000 to 5000 | O=C(Nc1ccc(Oc2ccnc3[nH]c(=O)cnc23)cc1F)Nc1cc(C2(C(F)(F)F)CC2)nn1-c1ccccc1 [(d), 1-(2-fluoro-4-((3-oxo-3,4-dihydropyrido[2,3-b]pyrazin-8-yl)oxy)phenyl)-3-(1-phenyl-3-(1-(trifluoromethyl)cyclopropyl)-1 H-pyrazol-5-yl)urea] | 50 to 75
< 500 | CCOC(=O)Nc1cc(Oc2ccc(NC(=O)Nc3cc(C(C)(C)C)nn3-c3ccccc3)c3ccccc23)ccn1 [(da), ethyl (4-((4-(3-(3-(tert-butyl)-1-phenyl-1 H-pyrazol-5-yl)ureido)naphthalen-1-yl)oxy)pyridin-2-yl)carbamate] | ≥ 75
< 500 | CCOC(=O)Nc1cc(Oc2ccc(NC(=O)Nc3cc(C(C)(C)C)no3)c3ccccc23)ccn1 [(db), ethyl (4-((4-(3-(3-(tert-butyl)isoxazol-5-yl)ureido)naphthalen-1-yl)oxy)pyridin-2-yl)carbamate] | ≥ 75
< 500 | CCOC(=O)Nc1cc(Oc2ccc(NC(=O)Nc3ncc(C(C)(C)C)s3)c3ccccc23)ccn1 [(dc), ethyl (4-((4-(3-(5-(tert-butyl)thiazol-2-yl)ureido)naphthalen-1-yl)oxy)pyridin-2-yl)carbamate] | ≥ 75
< 500 | CSc1cc(Oc2ccnc3[nH]c(=O)cnc23)ccc1NC(=O)Nc1cc(C(C)(C)C)nn1-c1ccc(CN2CCOCC2)cc1 [(dd), 1-(3-(tert-butyl)-1-(4-(morpholinomethyl)phenyl)-1 H-pyrazol-5-yl)-3-(2-(methylthio)-4-((3-oxo-3,4-dihydropyrido[2,3-b]pyrazin-8-yl)oxy)phenyl)urea] | ≥ 75
< 500 | CCOC(=O)Nc1cc(Oc2ccc(NC(=O)Nc3cc(C(C)(C)C)no3)c(SC)c2)ccn1 [(de), ethyl (4-(4-(3-(3-(tert-butyl)isoxazol-5-yl)ureido)-3-(methylthio)phenoxy)pyridin-2-yl)carbamate] | ≥ 75
< 500 | CCOC(=O)Nc1cc(Oc2ccc(NC(=O)Nc3ncc(C(C)(C)C)s3)c(SC)c2)ccn1 [(df), ethyl (4-(4-(3-(5-(tert-butyl)thiazol-2-yl)ureido)-3-(methylthio)phenoxy)pyridin-2-yl)carbamate] | ≥ 75
< 500 | CC(C)(C)c1cc(NC(=O)Nc2ccc(Oc3ccnc4c3CCC(=O)N4)c3ccccc23)on1 [(dg), 1-(3-(tert-butyl)isoxazol-5-yl)-3-(4-((7-oxo-5,6,7,8-tetrahydro-1,8-naphthyridin-4-yl)oxy)naphthalen-1-yl)urea] | ≥ 75
1000 to 5000 | CSc1cc(Oc2ccnc3[nH]c(=O)cnc23)ccc1NC(=O)Nc1cc(C(C)(C)C)on1 [(dh), 1-(5-(tert-butyl)isoxazol-3-yl)-3-(2-(methylthio)-4-((3-oxo-3,4-dihydropyrido[2,3-b]pyrazin-8-yl)oxy)phenyl)urea] | ≥ 75
< 500 | CCOC(=O)Nc1cc(Oc2ccc(NC(=O)Nc3cc(C(C)(C)C)on3)c(SC)c2)ccn1 [(di), ethyl (4-(4-(3-(5-(tert-butyl)isoxazol-3-yl)ureido)-3-(methylthio)phenoxy)pyridin-2-yl)carbamate] | ≥ 75
< 500 | CC(=O)Nc1cc(Oc2ccc(NC(=O)Nc3cc(C(C)(C)C)nn3-c3ccccc3)c3ccccc23)ccn1 [(dj), N-(4-((4-(3-(3-(tert-butyl)-1-phenyl-1H-pyrazol-5-yl)ureido)naphthalen-1-yl)oxy)pyridin-2-yl)acetamide] | ≥ 75
≥ 5000 | CSc1cc(Oc2ccncc2)ccc1NC(=O)Nc1cc(C(C)(C)C)nn1-c1ccccc1 [(dk), 1-(3-(tert-butyl)-1-phenyl-1 H-pyrazol-5-yl)-3-(2-(methylthio)-4-(pyridin-4-yloxy)phenyl)urea] | 25 to 50
1000 to 5000 | CSc1cc(Oc2ccnc(NS(C)(=O)=O)c2)ccc1NC(=O)Nc1cc(C(C)(C)C)no1 [(dl), N-(4-(4-(3-(3-(tert-butyl)isoxazol-5-yl)ureido)-3-(methylthio)phenoxy)pyridin-2-yl)methanesulfonamide] | ≥ 75
1000 to 5000 | CSc1cc(Oc2ccnc3[nH]c(=O)[nH]c23)ccc1NC(=O)Nc1cc(C(C)(C)C)nn1-c1ccccc1 [(dm), 1-(3-(tert-butyl)-1-phenyl-1H-pyrazol-5-yl)-3-(2-(methylthio)-4-((2-oxo-2,3-dihydro-1H-imidazo[4,5-b]pyridin-7-yl)oxy)phenyl)urea] | ≥ 75
500 to 1000 | CSc1cc(NC(=O)Nc2cc(C(C)(C)C)nn2-c2ccccc2)ccc1Oc1ccnc2[nH]c(=O)cnc12 [(dn), 1-(3-(tert-butyl)-1-phenyl-1H-pyrazol-5-yl)-3-(3-(methylthio)-4-((3-oxo-3,4-dihydropyrido[2,3-b]pyrazin-8-yl)oxy)phenyl)urea] | ≥ 75
< 500 | CSc1cc(Oc2ccnc3[nH]c(=O)ccc23)ccc1NC(=O)Nc1cc(C(C)(C)C)nn1-c1ccccc1 [(do), 1-(3-(tert-butyl)-1-phenyl-1H-pyrazol-5-yl)-3-(2-(methylthio)-4-((7-oxo-7,8-dihydro-1,8-naphthyridin-4-yl)oxy)phenyl)urea] | ≥ 75
< 500 | CSc1cc(Oc2ccnc3[nH]c(=O)cnc23)ccc1NC(=O)Nc1cc(C(C)(C)C)nn1-c1ccc(CN(C)C)cc1 [(dp), 1-(3-(tert-butyl)-1-(4-((dimethylamino)methyl)phenyl)-1H-pyrazol-5-yl)-3-(2-(methylthio)-4-((3-oxo-3,4-dihydropyrido[2,3-b]pyrazin-8-yl)oxy)phenyl)urea] | ≥ 75
500 to 1000 | CSc1cc(Oc2ccnc(NC(=O)CO)c2)ccc1NC(=O)Nc1cc(C(C)(C)C)nn1-c1ccccc1 [(dq), N-(4-(4-(3-(3-(tert-butyl)-1-phenyl-1H-pyrazol-5-yl)ureido)-3-(methylthio)phenoxy)pyridin-2-yl)-2-hydroxyacetamide] | ≥ 75
≥ 5000 | O=C(Nc1ccc(Oc2ccnc3[nH]c(=O)cnc23)cc1F)Nc1cc(C2CC2)nn1-c1ccccc1 [(e), 1-(3-cyclopropyl-1-phenyl-1 H-pyrazol-5-yl)-3-(2-fluoro-4-((3-oxo-3,4-dihydropyrido[2,3-b]pyrazin-8-yl)oxy)phenyl)urea] | 25 to 50
≥ 5000 | CC1(c2cc(NC(=O)Nc3ccc(Oc4ccnc5[nH]c(=O)cnc45)cc3F)n(-c3ccccc3)n2)COC1 [(f), 1-(2-fluoro-4-((3-oxo-3,4-dihydropyrido[2,3-b]pyrazin-8-yl)oxy)phenyl)-3-(3-(3-methyloxetan-3-yl)-1-phenyl-1 H-pyrazol-5-yl)urea] | 50 to 75
500 to 1000 | CC(C)Cc1cc(NC(=O)Nc2ccc(Oc3ccnc4[nH]c(=O)cnc34)cc2F)n(-c2ccccc2)n1 [(g), 1-(2-fluoro-4-((3-oxo-3,4-dihydropyrido[2,3-b]pyrazin-8-yl)oxy)phenyl)-3-(3-isobutyl-1-phenyl-1H-pyrazol-5-yl)urea] | ≥ 75
≥ 5000 | CC(C)(C)c1cc(NC(=O)Nc2ccc(Oc3ccnc4[nH]c(=O)cnc34)cc2F)[nH]n1 [(h), 1-(3-(tert-butyl)-1H-pyrazol-5-yl)-3-(2-fluoro-4-((3-oxo-3,4-dihydropyrido[2,3-b]pyrazin-8-yl)oxy)phenyl)urea] | 25 to 50
